Laboratory results taken from patent US20240391936A1, “TETRAHYDROTHIENO PYRIDINE DERIVATIVES AS DDRS INHIBITORS” (CHIESI FARMACEUTICI S.P.A., priority 2021, published 2024).
Where two headings read alike, the source gives them in different places.

Assays:
DDR1 [1] = biological target: T1, DDR1 (Homo sapiens, UniProt Q08345); assay: DDR1 cell based assay (PathHunter U2OS DDR1 assay); set-up: host or cells: U2OS-DDR1 (PathHunter); conditions: U2OS-DDR1 cells, bovine Type II Collagen 20 μg/ml
Experimental: The inhibition of DDR1 receptor activation by compounds was evaluated by PathHunter® U2OS DDR1 assay (Eurofins DiscoverX), according to the manufacturer's instructions. Briefly, U2OS-DDR1 cells were seeded in white 384-well plates at a density of 5000 cells/well and incubated for 2 hours at 37° C. and 5% CO2. Cells were then treated with compounds at different concentrations and incubated for 30 minutes, before stimulation with bovine Type II Collagen 20 μg/ml and incubation overnight at 37° C. and 5% CO2. PathHunter Detection Reagents were prepared according to the protocol provided by DiscoverX and 20 μl/well of this mix were added to each well. After incubating the plates for 1 hour at room temperature in the dark, luminescence signal was acquired with a plate reader. Raw data were normalized to vehicle control (0% for normalization) and positive control (100% for normalization; cells treated with 20 μg/ml collagen II) and IC50 parameters were calculated in GraphPad Prism 8.0 software, using sigmoidal dose-response curve fitting with variable slope.

DDR2 = biological target: T2, DDR2 (Homo sapiens, UniProt Q16832); assay: DDR2 binding assay (LanthaScreen Europium Kinase Binding assay); set-up: purchased Life Technologies
T2 sequence (Q16832 22-855): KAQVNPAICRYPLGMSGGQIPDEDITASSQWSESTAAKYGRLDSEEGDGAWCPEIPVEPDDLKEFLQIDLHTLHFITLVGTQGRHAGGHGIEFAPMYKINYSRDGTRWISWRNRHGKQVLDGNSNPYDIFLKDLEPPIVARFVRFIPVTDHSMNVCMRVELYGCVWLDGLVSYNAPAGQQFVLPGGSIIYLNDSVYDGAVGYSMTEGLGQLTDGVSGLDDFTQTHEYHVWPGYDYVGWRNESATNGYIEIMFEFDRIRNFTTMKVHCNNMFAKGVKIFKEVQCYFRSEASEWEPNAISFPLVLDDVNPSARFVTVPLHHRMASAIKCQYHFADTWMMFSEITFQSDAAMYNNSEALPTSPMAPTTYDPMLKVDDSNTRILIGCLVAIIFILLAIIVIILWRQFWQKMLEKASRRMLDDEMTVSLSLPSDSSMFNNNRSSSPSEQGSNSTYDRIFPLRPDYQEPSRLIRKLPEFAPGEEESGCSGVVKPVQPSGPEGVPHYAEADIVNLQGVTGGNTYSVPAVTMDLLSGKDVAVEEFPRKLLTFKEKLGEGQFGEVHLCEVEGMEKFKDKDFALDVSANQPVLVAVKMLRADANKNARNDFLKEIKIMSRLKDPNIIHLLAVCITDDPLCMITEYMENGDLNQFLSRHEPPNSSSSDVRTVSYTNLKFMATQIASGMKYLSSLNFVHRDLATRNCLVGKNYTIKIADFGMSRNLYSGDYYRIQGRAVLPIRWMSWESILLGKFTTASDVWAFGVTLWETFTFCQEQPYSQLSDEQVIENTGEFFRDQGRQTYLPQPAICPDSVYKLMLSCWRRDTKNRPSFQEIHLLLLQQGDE
Experimental: (§1) DDR1 and DDR2 binding assays were performed using Life Technologies LanthaScreen™ Europium Kinase Binding assay. The compounds were incubated with 5 nM DDR1 (Carna Biosciences) or 5 nM DDR2 (Life Technologies) for 1 hour at room temperature in white 384-well OptiPlate (PerkinElmer), containing 20 nM or 10 nM Kinase Tracer 178 respectively and 2 nM Europium labelled anti-GST antibody (Life Technologies) in assay buffer (50 mM HEPES pH 7.5, 10 mM MgCl2, 1 mM EGTA and 0.01% BRIJ35).
(§2) The ratio of fluorescence emission 665 nm/615 nm after excitation at 340 nm was obtained using the Tecan Spark 20M plate reader. IC50 values were determined in GraphPad Prism 7.0 software, using 4 parameter model: log(inhibitor) vs. response. IC50 values were converted in Ki using the Cheng-Prusoff equation

DDR1 [2] = biological target: T1, DDR1; assay: DDR1 binding assay (LanthaScreen Europium Kinase Binding assay); set-up: purchased Carna Biosciences
Experimental: as §1, §2

[3] = binding assay, 5 nM DDR2, 10 nM Kinase Tracer 178, Ki from IC50 by Cheng-Prusoff, read-out: Ki DDR2
[4] = binding assay, 5 nM DDR1, 20 nM Kinase Tracer 178, Ki from IC50 by Cheng-Prusoff, read-out: Ki DDR1
[5] = 5 nM DDR2, 10 nM Kinase Tracer 178, 1 hour at room temperature, IC50 converted in Ki using the Cheng-Prusoff equation, read-out: DDR2 Ki
[6] = 5 nM DDR1, 20 nM Kinase Tracer 178, 1 hour at room temperature, IC50 converted in Ki using the Cheng-Prusoff equation, read-out: DDR1 Ki

T1 sequence (Q08345 19-913): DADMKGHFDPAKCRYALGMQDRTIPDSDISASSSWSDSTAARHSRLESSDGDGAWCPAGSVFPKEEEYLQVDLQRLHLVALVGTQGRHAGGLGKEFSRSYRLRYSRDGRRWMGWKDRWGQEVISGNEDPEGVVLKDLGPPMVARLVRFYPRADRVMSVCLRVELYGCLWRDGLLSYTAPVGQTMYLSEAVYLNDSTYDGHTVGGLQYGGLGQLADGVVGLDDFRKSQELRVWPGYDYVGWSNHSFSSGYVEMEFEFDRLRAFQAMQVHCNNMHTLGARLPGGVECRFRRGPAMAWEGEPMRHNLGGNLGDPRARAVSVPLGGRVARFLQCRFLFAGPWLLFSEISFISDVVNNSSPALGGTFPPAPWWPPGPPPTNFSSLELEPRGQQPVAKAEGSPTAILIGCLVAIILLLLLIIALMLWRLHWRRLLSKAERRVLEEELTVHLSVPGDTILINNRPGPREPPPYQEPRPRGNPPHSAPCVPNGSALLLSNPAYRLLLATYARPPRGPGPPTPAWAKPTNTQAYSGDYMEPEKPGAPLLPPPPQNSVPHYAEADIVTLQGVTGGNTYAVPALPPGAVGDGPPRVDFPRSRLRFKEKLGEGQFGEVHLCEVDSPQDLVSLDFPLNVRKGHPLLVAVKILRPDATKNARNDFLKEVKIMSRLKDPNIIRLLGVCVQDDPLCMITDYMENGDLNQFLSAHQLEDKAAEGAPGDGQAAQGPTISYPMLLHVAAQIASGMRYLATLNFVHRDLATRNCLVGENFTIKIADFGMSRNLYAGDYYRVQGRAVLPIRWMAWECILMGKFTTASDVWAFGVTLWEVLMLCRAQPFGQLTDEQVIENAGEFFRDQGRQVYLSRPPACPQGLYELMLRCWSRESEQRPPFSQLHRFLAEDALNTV

Row | IC50 (DDR1 [1]) | Ki (DDR2; [3]) | Ki (DDR1 [2]; [4]) | Ki (DDR2; [5]) | Ki (DDR1 [2]; [6]) | Compound
1 | 50 to 80 nM | < 25 nM | < 25 nM | – | – | O=C(Nc1ccc(Cl)c(C(F)(F)F)c1)c1csc2c1CCN(C(=O)c1cnn3ccncc13)C2 [Example 176, N-(4-chloro-3-(trifluoromethyl)phenyl)-6-(pyrazolo[1,5-a]pyrazine-3-carbonyl)-4,5,6,7-tetrahydrothieno[2,3-c]pyridine-3-carboxamide]
2 | 50 to 80 nM | 25 to 50 nM | < 25 nM | – | – | CN(C)C1CCN(Cc2cc(NC(=O)c3csc4c3CCN(C(=O)c3cnc5ccccn35)C4)cc(C(F)(F)F)c2)CC1 [Example 48, N-(3-((4-(dimethylamino)piperidin-1-yl)methyl)-5-(trifluoromethyl)phenyl)-6-(imidazo[1,2-a]pyridine-3-carbonyl)-4,5,6,7-tetrahydrothieno[2,3-c]pyridine-3-carboxamide]
3 | 25 to 50 nM | < 25 nM | < 25 nM | – | – | O=C(Nc1cncc(C(F)(F)F)c1)c1csc2c1CCN(C(=O)c1cnn3cccnc13)C2 [Example 109, 6-(pyrazolo[1,5-a]pyrimidine-3-carbonyl)-N-(5-(trifluoromethyl)pyridin-3-yl)-4,5,6,7-tetrahydrothieno[2,3-c]pyridine-3-carboxamide]
4 | < 25 nM | < 25 nM | < 25 nM | – | – | O=C(Nc1cc(OCCN2CCCC2)cc(C(F)(F)F)c1)c1csc2c1CCN(Cc1cnc3[nH]ncc3c1)C2 [Example 164, 6-((1H-pyrazolo[3,4-b]pyridin-5-yl)methyl)-N-(3-(2-(pyrrolidin-1-yl)ethoxy)-5-(trifluoromethyl)phenyl)-4,5,6,7-tetrahydrothieno[2,3-c]pyridine-3-carboxamide]
5 | 25 to 50 nM | < 25 nM | < 25 nM | – | – | O=C(Nc1cc(CN2CC3CC2CO3)cc(C(F)(F)F)c1)c1csc2c1CCN(C(=O)c1cnc3ccccn13)C2 (stereo not shown) [Example 50, N-(3-((2-oxa-5-azabicyclo[2.2.1]heptan-5-yl)methyl)-5-(trifluoromethyl)phenyl)-6-(imidazo[1,2-a]pyridine-3-carbonyl)-4,5,6,7-tetrahydrothieno[2,3-c]pyridine-3-carboxamide]
6 | 25 to 50 nM | < 25 nM | < 25 nM | – | – | CC(C)(C)c1coc(NC(=O)c2csc3c2CCN(C(=O)c2cnc4ccccn24)C3)n1 [Example 47, N-(4-(tert-butyl)oxazol-2-yl)-6-(imidazo[1,2-a]pyridine-3-carbonyl)-4,5,6,7-tetrahydrothieno[2,3-c]pyridine-3-carboxamide]
7 | < 25 nM | < 25 nM | < 25 nM | – | – | Cc1n[nH]c2ncc(CN3CCc4c(C(=O)Nc5cc(OCCN6CCCC6)cc(C(F)(F)F)c5)csc4C3)cc12 [Example 163, 6-[(3-methyl-1H-pyrazolo[3,4-b]pyridin-5-yl)methyl]-N-[3-(2-pyrrolidin-1-ylethoxy)-5-(trifluoromethyl)phenyl]-5,7-dihydro-4H-thieno[2,3-c]pyridine-3-carboxamide]
8 | 25 to 50 nM | < 25 nM | < 25 nM | – | – | O=C(Nc1cc(CN2CCC(F)C2)cc(C(F)(F)F)c1)c1csc2c1CCN(C(=O)c1cnc3ccccn13)C2 (stereo not shown) [Example 51, N-(3-((3-fluoropyrrolidin-1-yl)methyl)-5-(trifluoromethyl)phenyl)-6-(imidazo[1,2-a]pyridine-3-carbonyl)-4,5,6,7-tetrahydrothieno[2,3-c]pyridine-3-carboxamide]
9 | 25 to 50 nM | < 25 nM | < 25 nM | – | – | O=C(Nc1cc(C(F)(F)F)cnn1)c1csc2c1CCN(C(=O)c1cnc3ccccn13)C2 [Example 173, 6-(imidazo[1,2-a]pyridine-3-carbonyl)-N-(5-(trifluoromethyl)pyridazin-3-yl)-4,5,6,7-tetrahydrothieno[2,3-c]pyridine-3-carboxamide]
10 | 25 to 50 nM | 25 to 50 nM | < 25 nM | – | – | Cc1n[nH]c2ncc(CN3CCc4c(C(=O)Nc5cc(CN6CC[C@@H](N(C)C)C6)cc(C(F)(F)F)c5)csc4C3)cc12 [Example 157, (R)—N-(3-((3-(dimethylamino)pyrrolidin-1-yl)methyl)-5-(trifluoromethyl)phenyl)-6-((3-methyl-1H-pyrazolo[3,4-b]pyridin-5-yl)methyl)-4,5,6,7-tetrahydrothieno[2,3-c]pyridine-3-carboxamide]
11 | < 25 nM | < 25 nM | < 25 nM | – | – | Cn1nc(NC(=O)c2csc3c2CCN(Cc2cnc4[nH]ccc4c2)C3)cc1C(F)(F)F [Example 169, 6-((1H-pyrrolo[2,3-b]pyridin-5-yl)methyl)-N-(1-methyl-5-(trifluoromethyl)-1H-pyrazol-3-yl)-4,5,6,7-tetrahydrothieno[2,3-c]pyridine-3-carboxamide]
12 | 25 to 50 nM | < 25 nM | < 25 nM | – | – | O=C(Nc1cncc(C(F)(F)F)c1)c1csc2c1CCN(C(=O)c1cnc3n1CCOC3)C2 [Example 110, 6-(5,6-dihydro-8H-imidazo[2,1-c][1,4]oxazine-3-carbonyl)-N-(5-(trifluoromethyl)pyridin-3-yl)-4,5,6,7-tetrahydrothieno[2,3-c]pyridine-3-carboxamide]
13 | 50 to 80 nM | < 25 nM | < 25 nM | – | – | CCn1nc(C(C)(C)C)cc1NC(=O)c1csc2c1CCN(C(=O)c1cnc3ccccn13)C2 [Example 42, N-(3-(tert-butyl)-1-ethyl-1H-pyrazol-5-yl)-6-(imidazo[1,2-a]pyridine-3-carbonyl)-4,5,6,7-tetrahydrothieno[2,3-c]pyridine-3-carboxamide]
14 | 25 to 50 nM | < 25 nM | < 25 nM | – | – | CN1CC=C(c2ccc3ncc(C(=O)N4CCc5c(C(=O)Nc6cccc(C(F)(F)F)c6)csc5C4)n3c2)CC1 [Example 167, 6-(6-(1-methyl-1,2,3,6-tetrahydropyridin-4-yl)imidazo[1,2-a]pyridine-3-carbonyl)-N-(3-(trifluoromethyl)phenyl)-4,5,6,7-tetrahydrothieno[2,3-c]pyridine-3-carboxamide]
15 | – | – | – | 160 nM | 195 nM | CN1CCN(Cc2cc(NC(=O)c3cc4c(s3)CCN(C(=O)c3cnc5ccccn35)C4)cc(C(F)(F)F)c2)CC1 [Example C2, 5-(imidazo[1,2-a]pyridine-3-carbonyl)-N-(3-((4-methylpiperazin-1-yl)methyl)-5-(trifluoromethyl)phenyl)-4,5,6,7-tetrahydrothieno[3,2-c]pyridine-2-carboxamide]
16 | – | – | – | 531 nM | 312 nM | CN1CCN(Cc2cc(NC(=O)c3cc4c(s3)CN(C(=O)c3cnc5ccccn35)CC4)cc(C(F)(F)F)c2)CC1 [Example C1, 6-(imidazo[1,2-a]pyridine-3-carbonyl)-N-(3-((4-methylpiperazin-1-yl)methyl)-5-(trifluoromethyl)phenyl)-4,5,6,7-tetrahydrothieno[2,3-c]pyridine-2-carboxamide]
